From PubChem BioAssay AID248 (DTP/NCI, 2004)
Several values for one entry are separate records, joined by “and”; a condition that tells them apart may be missing. Equal values may be shown once. Toxic doses and inconclusive results are not listed. Rule as the data show it: active = T/C of 150% or more; inactive = T/C below 125%.

System: L1210 leukemia ip in BDF1 mice, survival T/C
Assay: NCI In Vivo Anticancer Drug Screen. Data for tumor model L1210 Leukemia (intraperitoneal) in B6D2F1 (BDF1) mice
Conditions: endpoint: mean survival time, higher = longer survival
In short: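 Mice bearing the transplanted tumor received compound or vehicle. Survival of the treated group was divided by that of the vehicle-treated control group to give the ratio.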

[1] = dose: 50.0 mg/kg/injection, schedule: Q01DX009 (ip), vehicle: saline with Tween-80
[2] = dose: 100.0 mg/kg/injection, schedule: Q01DX009 (ip), vehicle: Klucel (hydroxypropylcellulose) (HPC)
[3] = dose: 100.0 mg/kg/injection, schedule: Q04DX003 (ip), vehicle: Klucel (hydroxypropylcellulose) (HPC)
[4] = dose: 200.0 mg/kg/injection, schedule: Q01DX009 (ip), vehicle: Klucel (hydroxypropylcellulose) (HPC)
[5] = dose: 200.0 mg/kg/injection, schedule: Q04DX003 (ip), vehicle: Klucel (hydroxypropylcellulose) (HPC)
[6] = dose: 400.0 mg/kg/injection, schedule: Q01DX009 (ip), vehicle: Klucel (hydroxypropylcellulose) (HPC)
[7] = dose: 400.0 mg/kg/injection, schedule: Q04DX003 (ip), vehicle: Klucel (hydroxypropylcellulose) (HPC)
[8] = dose: 100.0 mg/kg/injection, schedule: Q04DX003 (ip), vehicle: saline with Tween-80
[9] = dose: 200.0 mg/kg/injection, schedule: Q04DX003 (ip), vehicle: saline with Tween-80
[10] = dose: 400.0 mg/kg/injection, schedule: Q04DX003 (ip), vehicle: saline with Tween-80
[11] = dose: 100.0 mg/kg/injection, schedule: Q01DX009 (ip), vehicle: saline with Tween-80
[12] = dose: 200.0 mg/kg/injection, schedule: Q01DX009 (ip), vehicle: saline with Tween-80
[13] = dose: 400.0 mg/kg/injection, schedule: Q01DX009 (ip), vehicle: saline with Tween-80
[14] = dose: 100.0 mg/kg/injection, schedule: Q01DX001 (ip), vehicle: saline
[15] = dose: 200.0 mg/kg/injection, schedule: Q01DX001 (ip), vehicle: saline
[16] = dose: 400.0 mg/kg/injection, schedule: Q01DX001 (ip), vehicle: saline
[17] = dose: 100.0 mg/kg/injection, schedule: Q04DX002 (ip), vehicle: saline with Tween-80
[18] = dose: 200.0 mg/kg/injection, schedule: Q04DX002 (ip), vehicle: saline with Tween-80
[19] = dose: 400.0 mg/kg/injection, schedule: Q04DX002 (ip), vehicle: saline with Tween-80

Measured: T/C

CC(C)CCNc1ccc(NCCC(C)C)cc1
inactive: dose: 12.5 mg/kg/injection, schedule: Q01DX009 (ip), vehicle: saline with Tween-80 100 % of control | dose: 12.5 mg/kg/injection, schedule: Q04DX003 (ip), vehicle: Klucel (hydroxypropylcellulose) (HPC) 104 % of control | dose: 25.0 mg/kg/injection, schedule: Q01DX009 (ip), vehicle: saline with Tween-80 100 % of control | dose: 25.0 mg/kg/injection, schedule: Q04DX003 (ip), vehicle: Klucel (hydroxypropylcellulose) (HPC) 96 % of control | [1] 96 % of control | dose: 50.0 mg/kg/injection, schedule: Q04DX003 (ip), vehicle: Klucel (hydroxypropylcellulose) (HPC) 96 % of control | dose: 75.0 mg/kg/injection, schedule: Q01DX009 (ip), vehicle: alcohol 86 % of control

CC(=O)Nc1cc([N+](=O)[O-])ccc1CC(O)c1ccccc1Cl (stereo not given)
inactive: [2] 92 % of control | [3] 97 % of control | [4] 103 % of control | [5] 108 % of control | [6] 104 % of control | [7] 103 % of control

CS(=O)(=O)c1ccccc1
inactive: dose: 100.0 mg/kg/injection, schedule: Q04DX002 (ip), vehicle: Klucel (hydroxypropylcellulose) (HPC) 102 % of control | dose: 200.0 mg/kg/injection, schedule: Q04DX002 (ip), vehicle: Klucel (hydroxypropylcellulose) (HPC) 91 % of control | dose: 400.0 mg/kg/injection, schedule: Q04DX002 (ip), vehicle: Klucel (hydroxypropylcellulose) (HPC) 102 % of control

COC1OC(COS(=O)(=O)c2ccc(C)cc2)C(OS(=O)(=O)c2ccc(C)cc2)C(OS(=O)(=O)c2ccc(C)cc2)C1OS(=O)(=O)c1ccc(C)cc1 (stereo not given)
inactive: [8] 91 % of control | [9] 91 % of control | [10] 90 % of control

O=[N+]([O-])c1ccc(-c2cccc3ccccc23)c([N+](=O)[O-])c1
inactive: dose: 100.0 mg/kg/injection, schedule: Q01DX001 (ip), vehicle: carboxymethylcellulose (CMC) 96 % of control | dose: 400.0 mg/kg/injection, schedule: Q01DX001 (ip), vehicle: carboxymethylcellulose (CMC) 91 % of control

CCCCCCCCCCCCC(=O)N1CCOCC1
inactive: [8] 122 % of control | [9] 107 % of control | [10] 104 % of control

O=S(=O)(O)C(Nc1ccccc1)c1ccccc1 (stereo not given)
inactive: [11] 100 % of control | [8] 97 % of control | dose: 150.0 mg/kg/injection, schedule: Q01DX001 (ip), vehicle: water 96 % of control | dose: 162.0 mg/kg/injection, schedule: Q01DX Z (ip), vehicle: carboxymethylcellulose (CMC) 95 % of control | [12] 96 % of control | [9] 101 % of control | dose: 300.0 mg/kg/injection, schedule: Q01DX001 (ip), vehicle: water 100 % of control | dose: 324.0 mg/kg/injection, schedule: Q01DX Z (ip), vehicle: carboxymethylcellulose (CMC) 94 % of control | [13] 101 % of control | dose: 400.0 mg/kg/injection, schedule: Q01DX015 (ip), vehicle: water 119 % of control | [10] 93 % of control | dose: 600.0 mg/kg/injection, schedule: Q01DX001 (ip), vehicle: water 96 % of control | dose: 600.0 mg/kg/injection, schedule: Q01DX015 (ip), vehicle: water 104 % of control | dose: 1200.0 mg/kg/injection, schedule: Q01DX001 (ip), vehicle: water 116 % of control

O=C(CSc1ccc([N+](=O)[O-])cc1)c1ccc(Br)cc1
inactive: [14] 87 % of control | dose: 100.0 mg/kg/injection, schedule: Q04DX003 (ip), vehicle: saline 95 % of control | [15] 87 % of control | dose: 200.0 mg/kg/injection, schedule: Q04DX003 (ip), vehicle: saline 90 % of control | [16] 94 % of control | dose: 400.0 mg/kg/injection, schedule: Q04DX003 (ip), vehicle: saline 90 % of control

COc1ccccc1NC(=O)Oc1c(C(C)C)cccc1C(C)C
inactive: [2] 94 % of control | [3] 95 % of control | [4] 97 % of control | [5] 102 % of control | [6] 106 % of control | [7] 94 % of control

NC(=O)c1ccccc1Nc1ccc([N+](=O)[O-])cc1[N+](=O)[O-]
inactive: dose: 34.0 mg/kg/injection, schedule: Q01DX Z (ip), vehicle: carboxymethylcellulose (CMC) 95 % of control | dose: 49.0 mg/kg/injection, schedule: Q01DX Z (ip), vehicle: carboxymethylcellulose (CMC) 95 % of control

CCCCCCCCCCCCCCCCCc1nc2nc(Cl)c(Cl)nc2[nH]1
inactive: [1] 91 % of control | [11] 91 % of control | [8] 98 % of control and 89 % of control | [12] 91 % of control | [9] 96 % of control | [13] 93 % of control | [10] 94 % of control and 90 % of control

CN(N)C(=O)Nc1ccc(Cl)c(Cl)c1
inactive: dose: 75.0 mg/kg/injection, schedule: Q01DX001 (ip), vehicle: carboxymethylcellulose (CMC) 110 % of control | dose: 150.0 mg/kg/injection, schedule: Q01DX001 (ip), vehicle: carboxymethylcellulose (CMC) 113 % of control

CC1C(=O)CCC2(C)CCC(C(=O)/C=C/c3ccco3)CC12 (stereo not given)
inactive: dose: 100.0 mg/kg/injection, schedule: Q01DX001 (ip), vehicle: Klucel (hydroxypropylcellulose) (HPC) 100 % of control | dose: 200.0 mg/kg/injection, schedule: Q01DX001 (ip), vehicle: Klucel (hydroxypropylcellulose) (HPC) 102 % of control | dose: 400.0 mg/kg/injection, schedule: Q01DX001 (ip), vehicle: Klucel (hydroxypropylcellulose) (HPC) 89 % of control

CS(=O)(=O)OCCC#N
inactive: dose: 50.0 mg/kg/injection, schedule: Q01DX009 (ip), vehicle: saline 103 % of control | dose: 100.0 mg/kg/injection, schedule: Q01DX009 (ip), vehicle: saline 101 % of control | dose: 100.0 mg/kg/injection, schedule: Q04DX003 (ip), vehicle: alcohol 102 % of control | dose: 200.0 mg/kg/injection, schedule: Q04DX003 (ip), vehicle: alcohol 93 % of control

COC(=O)Cc1cc(Cl)c2cc(C)ccc2n1
inactive: dose: 100.0 mg/kg/injection, schedule: Q01DX001 (ip), vehicle: other 95 % of control | dose: 200.0 mg/kg/injection, schedule: Q01DX001 (ip), vehicle: other 98 % of control | dose: 400.0 mg/kg/injection, schedule: Q01DX001 (ip), vehicle: other 96 % of control

CC(C)COC(c1ccc2c(c1)OCO2)C(C)Br (stereo not given)
inactive: [17] 96 % of control | [18] 101 % of control | [19] 107 % of control

Cc1ccc(/C=C2\NC(=O)NC2=O)cc1
inactive: dose: 25.0 mg/kg/injection, schedule: Q01DX009 (ip), vehicle: water 94 % of control | dose: 50.0 mg/kg/injection, schedule: Q01DX009 (ip), vehicle: water 93 % of control | dose: 100.0 mg/kg/injection, schedule: Q01DX009 (ip), vehicle: water 100 % of control | dose: 200.0 mg/kg/injection, schedule: Q01DX009 (ip), vehicle: water 94 % of control | dose: 400.0 mg/kg/injection, schedule: Q01DX009 (ip), vehicle: water 101 % of control

CCCCN=C=NCCC[N+](C)(C)C
inactive: [3] 98 % of control | [5] 107 % of control

CCC1=C(C)CN(C)c2ccccc21
inactive: [14] 100 % of control | [15] 100 % of control | [16] 94 % of control

Nc1ncnc2sc3c(c12)CCc1ccccc1-3
inactive: dose: 50.0 mg/kg/injection, schedule: Q01DX009 (ip), vehicle: Klucel (hydroxypropylcellulose) (HPC) 92 % of control | [2] 98 % of control | [4] 95 % of control

Cc1cc2c(cc1C)C(=O)OC2=O
inactive: [11] 102 % of control | [12] 98 % of control | [13] 100 % of control

Nc1ncnc(N)c1NC(=O)CCCc1ccccc1
inactive: [3] 86 % of control | [5] 92 % of control

CCCCC[CH2][Sn]([CH2]CCCCC)([CH2]CCCCC)[NH]S(=O)(=O)c1ccc(C)cc1
inactive: [17] 87 % of control | [18] 105 % of control | [19] 94 % of control
